In patent publication US20240108654A1, “COMBINATION OF A T CELL THERAPY AND A DGK INHIBITOR” (Juno Therapeutics, Inc., priority 2021, published 2024):

Key:
Assay type in all cases: cell-based, human
[1] = tested on: anti-CD19 CAR-expressing T cells; assay: Cytokine production (MSD) of CAR-T cells concurrently treated during chronic stimulation, 3D tumor spheroids; conditions: concurrent treatment during chronic stimulation; five days 3D co-culture with A549.CD19 and Granta-519 spheroids
Description: (§1) To simulate conditions of chronic stimulation, approximately 20,000 anti-CD19 CAR-expressing T cells of a combined CAR-T cell composition produced as described in Example 1 from two healthy adult donors were incubated with 30 μg/mL of plate-bound CAR-specific anti-idiotypic antibody (see, e.g., WO2018/023100) at 37° C. for a period of seven days. During this seven-day period, engineered CAR T cells were concurrently treated with Compound 17 (0.1-1000 nM) or a vehicle control added at day 0.
To further assess activity of chronically stimulated cell, the chronically stimulated CAR-T cells that had been concurrently treated with DGKi were incubated with A549 CD19+ tumor spheroids or Granta-519 tumor spheroids to rechallenge the CAR-T cells at an effector to target ratio of 1:2 for up to 14 days. The tumor spheroids were engineered to express a red fluorescent dye to permit monitoring of tumor cell lysis by microscopy during the assay.
Supernatant was collected at day 5 from the above tumor spheroid cultures with chronically stimulated CAR-expressing T cells. Cytokine production was measured from the supernatant by meso scale discovery (MSD) analysis of the collected cell supernatants. […] Duplicate values for cell compositions manufactured from the two different healthy donors are shown.

[2] = tested on: anti-CD19 CAR-expressing T cells; assay: CAR-T cell phenotype after stimulation with CAR-specific anti-idiotypic antibody (flow cytometry); conditions: 48-hour stimulation with 3 or 30 μg/mL anti-idiotypic antibody; compound 0.1-1000 nM; two donors
From the text: T cell compositions containing T cells expressing an exemplary anti-CD19 CAR were generated from leukapheresis samples from two healthy human adult donors by a process that included immunoaffinity-based selection of T cells by separately selecting CD4+ and CD8+ cells from the samples, resulting in two compositions enriched for CD4+ and CD8+ cells, respectively, per donor. Cells of the enriched CD4+ and CD8+ compositions were separately activated with anti-CD3/anti-CD28 beads and subjected to lentiviral transduction with a vector encoding an anti-CD19 CAR. […]
Prior to use, the cryopreserved CD4+ and CD8+ CAR-engineered cell compositions were thawed and combined at approximately a 1:1 CD4:CD8 ratio for each donor to prepare a combined CD4+ CAR+ and CD8+ CAR+ T cell composition. The effects of treatment with Compound 17 at various concentrations (0.1 nM, 1 nM, 10 nM, 100 nM, or 1000 nM) added at day 0 during stimulation of the combined CAR-T cell composition with a plate-bound CAR-specific anti-idiotypic antibody (see, e.g., WO2018/023100) or during co-culture with CD19-expressing cells was then assessed. […]

[3] = tested on: anti-CD19 CAR-expressing T cells; assay: Cytokine production (MSD) in co-culture of CAR-T cells and CD19-expressing tumor cells in presence of compound; conditions: 48 hours co-culture with K562.CD19, Granta-519, Raji cells, compound present
Description: Supernatant was collected after 48 hours from the above co-cultures of CAR-expressing T cells and CD19-expressing tumor cells in the presence of Compound 17. Cytokine production was measured from the supernatant by meso scale discovery (MSD) analysis of the collected cell supernatants.

[4] = tested on: anti-CD19 CAR-expressing T cells; assay: Activation phenotype of CAR-T cells chronically stimulated with concurrent compound treatment; conditions: seven-day chronic stimulation, concurrent compound 0.1-1000 nM
Description: as §1

anti-HPV16 eTCR T cells = assay: Proliferation (cell counts) of chronically stimulated eTCR T cells re-stimulated with anti-Vbeta antibody; conditions: re-stimulation 7 days with 20 μg/mL anti-Vbeta, 100 nM compound
From the text: Primary human CD4+ and CD8+ T cells were isolated from healthy donors by immunoaffinity-based methods. The isolated CD4+ and CD8+ T cells were combined and stimulated with an anti-CD3/anti-CD28 reagent, and then were transduced with a lentiviral vector encoding an anti-human papillomavirus 16 (anti-HPV16) eTCR. The nucleotide sequences encoding the beta chain and the alpha chain of the eTCR were separated by a sequence encoding a 2A ribosome skip element. Following transduction, the cells were cultured in media containing human serum and cytokines for 9-10 days prior to further assessment. In another experiment to assess activity of the DGKi to rescue or reverse exhaustion, eTCR T cells were chronically stimulated for 6 days as described above in the absence of Compound 17. […] As a control, chronically stimulated eTCR T cells were re-stimulated in the absence of Compound 17 for 7 days. At the end of the 7 day re-stimulation, cell counts were determined. […] As expected, in the absence of treatment with Compound 17, there was an overall reduction in the ability of chronically stimulated T cells to proliferate compared to fresh eTCR T cells (compare conditions (1) and (3)).

[5] = tested on: anti-CD19 CAR-expressing T cells; assay: Rescue treatment of chronically stimulated CAR-T cells: cytolytic activity, 2D co-culture with CD19-expressing lymphoma cells; conditions: rescue treatment during 2D co-culture, higher concentrations
Description: Anti-CD19 CAR-expressing T cells, produced as described in Example 1, were chronically stimulated with plate-bound CAR-specific anti-idiotypic antibody for seven days as described in Example 2, but in the absence of Compound 17 during chronic stimulation. Instead, chronically stimulated CAR T cells were treated with Compound 17 during re-challenge with CD19-expressing tumor cells, after which cytolytic activity and cytokine production were assessed.
The chronically stimulated CAR-T cells were incubated with various CD19-expressing lymphoma cells at a 2.5:1 effector:target ratio in the presence of DGKi (0-1000 nM). The tumor cells were labeled with NucLight Red (NLR) and tumor cell number was monitored by Incucyte®.

For `CC[C@H]1CN([C@@H](CC)c2ccc(C(F)(F)F)cc2)[C@H](CC)CN1c1nc(=O)n(C)c2ccc(C#N)nc12` [Compound 17, 4-((2S,5R)-2,5-diethyl-4-((S)-1-(4-(trifluoromethyl)phenyl)propyl)piperazin-1-yl)-1-methyl-2-oxo-1,2-dihydropyrido[3,2-d]pyrimidine-6-carbonitrile], the “production of IFNγ, IL-2 and TNFα in supernatant” value [1] was “dose-dependent increase in production of all three cytokines”, the “expression of CD27 and CD62L (% positive cells and MFI, presence vs. absence of compound)” value [2] was “decreased” and the “expression of CD69 and PD-1 (% positive cells and MFI, presence vs. absence of compound)” value [2] was “increased”. For the same molecule, the “production of IFNγ, IL-2 and TNFα in supernatant” value [3] was “dose-dependent increase in production of all three cytokines”, the “populations of highly activated CAR-T cells (CD69, PD-1 high)” value [4] was “increased populations of highly activated CAR-T cells” and the “proliferation of eTCR T cells (cell counts)” value (anti-HPV16 eTCR T cells) was “increased proliferation”. For the same molecule, the “CAR-T cell cytolytic activity (tumor cell number)” value ([5]; Granta-519 cells) was “improved the cytolytic activity” and the “CAR-T cell cytolytic activity (tumor cell number)” value ([5]; K562.CD19 cells) was “improved the cytolytic activity”.
